Results from US20250313555A1, “2-SUBSTITUTED THIAZOLE AND BENZOTHIAZOLE COMPOSITIONS AND METHODS AS DUX4 INHIBITORS” (ALTAY THERAPEUTICS, INC., priority 2022, published 2025).

What was measured:
Format in all cases: cell-based
[1] = Cell cytotoxicity 50 assay (CC50), MB200 cells, cell titer glo; conditions: human
Method: Cell Cytotoxicity 50 Assay Protocol (CC50) MB200 cells were grown until 80% confluent in F10 media supplemented with rhFGF basic (10 ng/ml), 15% fetal bovine serum, 1% penicillin streptomycin, 1% amphotericin B, and 1 μM dexamethasone. Adherent MB200 cells growing on 10 cm plate were then trypsinized with 1 ml of trypsin. Once the cells detached from the plate, F10 media (10 mL) was added, and the cells were strained through a 70 μm cell strainer. The cells were counted using a mixture of 10 μL cell suspension with 10 μL of trypan blue. Once the total number of cells were counted, a dilution of 200 k/mL was prepared, and the cells were seeded with 10 k cells/well in a 96-well plate in triplicate, making sure to avoid seeding cells in the edges of the plate to avoid edge effects. Using a multichannel pipet, the 200 k/mL cell dilution (50 μL/well) was added into wells B2-B11, C2-C11, and D2-D11 in triplicate. Into a deep well block (DWB), the media for the appropriate cell line (450 μL/well) was added into wells 1-10. Into DWB well 2, 10 mM of drug solution (13.5 μL) was added, followed by an additional volume of the medium (225 μL). The well was pipetted up/down four times. A portion (225 μL) was transferred to well 3, and this process was repeated up to well 10. Using a multichannel pipet, a smaller portion (50 μL/well) was removed from all wells in the DWB and then dispensed on top of the cells in each corresponding row. After adding the drug, the plate was incubated at 37° C. for 72 h. Using a multi-channel pipet, pre-warmed cell titer glo reagent (Promega) (100 μL) was added into every well. After 5 minutes, the total luminescence was measured with a luminometer. CC50 was determined with GraphPad prism template.

[2] = Cell cytotoxicity 50 assay (CC50), HEK cells; conditions: human
Method: Cell Cytotoxicity 50 Assay Protocol (CC50) Into a deep well block (DWB), the media for the appropriate cell line (450 μL/well) was added into wells 1-10. Into DWB well 2, 10 mM of drug solution (13.5 μL) was added, followed by an additional volume of the medium (225 μL). The well was pipetted up/down four times. A portion (225 μL) was transferred to well 3, and this process was repeated up to well 10. Using a multichannel pipet, a smaller portion (50 μL/well) was removed from all wells in the DWB and then dispensed on top of the cells in each corresponding row. After adding the drug, the plate was incubated at 37° C. for 72 h. Using a multi-channel pipet, pre-warmed cell titer glo reagent (Promega) (100 μL) was added into every well. After 5 minutes, the total luminescence was measured with a luminometer. CC50 was determined with GraphPad prism template.

MBD3L2 RNA = experiment: RNA isolation and qPCR to determine MBD3L2 RNA levels in FSHD cells; conditions: 48 hrs
Method: Protocol for RNA Isolation and qPCR to Determine MBD3L2 RNA Levels The protocol describes the process of isolating RNA from cultured cells, converting the RNA to complementary DNA (cDNA), and measuring target gene expression using a quantitative polymerase chain reaction (qPCR). The seed FSHD cells were dispensed into a six-well dish. One day after seeding, the DUX4 inhibitor (11 μM or 3.6 μM/well) was added to the cells. After another 48 hrs, the old media was removed from the cells. The cells were washed with 2 mL of warm phosphate buffered saline (PBS). The PBS was aspirated, and the cells were lysed in each well with 350 μL of RLT buffer+3.5 μL of beta-mercaptoethanol (BME). The lysates were added to fresh, RNAse-free, labeled Eppendorf tubes. The cells were then physically disrupted for […] at level 4 of the bead disrupter to ensure the release of the RNA. The RNA was collected according to standard procedures (i.e., Qiagen kit instructions) as discussed below. The RNA concentrations were standardized to […]. In a PCR tube, RNA (2 μg) in a new Eppendorf tube was diluted with RNase-free water to a 9.5 μL final volume of […] RNA. DNase was used to remove any DNA contamination. A DNase Master Mix was prepared from 1.5 μL/reaction DNase solution (1 unit/μL, Promega), 3 μL/reaction 5× RT buffer (i.e., 250 mM Tris-HCl (pH 8.3), 375 mM KCl, 15 mM MgCl2, and 500 μl 0.1 M DTT; Promega MMLV), and 1 μL/reaction RNase inhibitor solution (RNasin, 40 units/μL, Promega). The DNase Master Mix was added to the standardized RNA samples (5.5 μL/sample). The samples were mixed by agitation and briefly spun down by centrifuge. The samples were heated to 37° C. for 60 min, 80° C. for 5 min, and then cooled to 4° C. The samples were stored on ice until the addition of the next reagents. An RT Reaction Master Mix was prepared from 5 μL/reaction 5× RT buffer, 2 μL/reaction dNTP solution (2.5 mM in each nucleotide), 1 μL/reaction RNase inhibitor solution (RNasin, 40 units/μL, Promega), 1.6 μL/reaction M-MLV reverse transcriptase (200 units/μL, Promega), and 13.4 μL/reaction deionized, RNase-free water. The RT Reaction Master Mix was cooled on ice until use. A 50 μM solution of Random Primer 6 random hexanucleotides (2 μL) was added to each sample. The samples were mixed by agitation and briefly spun down by centrifuge. The samples were heated to 70° C. for 5 min and then cooled to 4° C. The RT Reaction Master Mix (23 μL) was added to each sample. The samples were mixed by agitation and briefly spun down by centrifuge. To convert the RNA to cDNA, the samples were heated to 42° C. for 60 min, 95° C. for 5 min, and then cooled to 4° C. The cDNA product mixture was diluted 5:1 with deionized water (40 μL+160 μL). The samples were run in triplicate, with a methyl-CpG-binding protein 3-like 2 (MBD3L2) target primer and a eukaryotic translation elongation factor 1-alpha (EEF1A) control primer. An qPCR Master Mix was prepared for each primer and stored on ice (4° C.) until use. The qPCR Master Mix included 10 μL/reaction SYBR Green Mix (2×) (ThermoFisher), 1 μL/reaction of the primer mix (i.e., the MBD3L2 PCR Primer mix or the EEF1A Primer mix), and 4 μL/reaction deionized, RNase-free water. To set up the qPCR plate, 15 μL of the appropriate qPCR Master Mix was added to the appropriate wells for each target/primer. After all the targets/primers have been added to the wells, 5 μL of the sample was added to the corresponding wells so that each well is 20 μL total. The plate was covered with a clear sheet. An qPCR run was set up (QuantStudio 5) with the following cycle: […]

SMILES	CC50 at 72 h [1] [µM]	CC50 at 72 h [2] [µM]	qPCR MBD3L2 Inhib at 11 µM (MBD3L2 RNA)
O=C(CCCc1cnco1)Nc1ccc(-c2nc3cc(F)ccc3s2)cc1 [Compound 64]	> 10	1 to 10	YES
O=C(CCCN1C(=O)CCC1=O)NCc1ccc(-c2nc3ccccc3s2)cc1 [Compound 93]	> 10	> 10	YES
O=C(CCCc1cccnc1)NC1CCC(c2nc3ccccc3s2)CC1 (stereo not drawn) [Compound 61]	> 10	> 10	YES
O=C(CCc1cnn[nH]1)Nc1ccc(-c2nc3ccccc3s2)cc1 [Compound 40]	> 10	> 10	YES
O=C(CCCCc1cccnc1)Nc1ccc(-c2nc3ccccc3s2)cc1 [Compound 140]	> 10	> 10	YES
CC(=O)NCCCC(=O)Nc1ccc(C(C)(C)c2nc3ccccc3s2)cc1 [Compound 87]	> 10	> 10	YES
O=C(CCc1cn[nH]c1)Nc1ccc(-c2nc3ccccc3s2)cc1 [Compound 27]	> 10	> 10	YES
CC(=O)NCCC(=O)Nc1ccc(-c2nc3ccccc3s2)cc1 [Compound 38]	> 10	> 10	YES
CC(=O)NCCCC(=O)Nc1ccc(-c2nc(-c3ccccc3)cs2)cc1 [Compound 130]	> 10	> 10	YES
CC(=O)N[C@H]1CC[C@H](C(=O)Nc2nc3ccccc3s2)C1 [Compound 184]	> 10	> 10	YES
O=C(CCN1C(=O)CCC1=O)Nc1ccc(-c2nc3ccccc3s2)nc1 [Compound 37]	> 10	> 10	YES
CC(=O)NCCCC(=O)NCc1ccc(-c2nc3ccccc3s2)cc1 [Compound 105]	> 10	> 10	YES
CC(=O)NCCCC(=O)Nc1ccc(-c2nc3ccccc3s2)nc1 [Compound 32]	> 10	> 10	YES
O=C(CCCc1cnco1)NC1CCC(c2nc3ccccc3s2)CC1 (stereo not drawn) [Compound 67]	> 10	> 10	YES
CC(=O)NCCCC(=O)Nc1ccc(-c2nc3ccccc3s2)cn1 [Compound 49]	> 10	> 10	YES
CC(=O)NCCC(=O)Nc1ccc(-c2nc3cc(C)ccc3s2)cc1 [Compound 53]	> 10	> 10	YES
O=C(CCc1cccnc1)Nc1ccc(-c2nc3ccccc3s2)cc1 [Compound 13]	> 10	> 10	YES
O=C(CCCc1cnco1)Nc1ccc(-c2nc3ccccc3s2)nc1 [Compound 81]	> 10	> 10	YES
CC(=O)NCCCC(=O)Nc1ccc(-c2nc3ccc(C)cc3s2)cc1 [Compound 15]	> 10	> 10	YES
O=C(CCN1CCCC1=O)Nc1ccc(-c2nc3ccccc3s2)cc1 [Compound 18]	> 10	> 10	YES
O=C(CCCN1C(=O)CCC1=O)Nc1ccc(-c2nc3c(s2)CCCC3)cc1 [Compound 88]	> 10	> 10	YES
O=C(CCCc1cccnc1)Nc1ccc(-c2nc3ccccc3s2)cc1 [Compound 52]	> 10	> 10	YES
CC(=O)NC(C)(C)/C=C/C(=O)Nc1ccc(-c2nc3ccccc3s2)cc1 [Compound 104]	> 10	> 10	YES
O=C(CCCc1cccnc1)Nc1ccc(-c2nc3cc(F)ccc3s2)cc1 [Compound 155]	> 10	1 to 10	YES
O=C(CCCN1C(=O)CCC1=O)NC1CC=C(c2nc3ccccc3s2)CC1 (stereo not drawn) [Compound 46]	> 10	> 10	YES
O=C(CCc1cncnc1)Nc1ccc(-c2nc3ccccc3s2)cc1 [Compound 55]	> 10	> 10	YES
